Several values for one entry are separate records, joined by “and”; a condition that tells them apart may be missing. Equal entries are not always repeated. Where two headings read alike, the source gives them in different places.
Key:
[1] = system: MDA-MB-468 human breast cancer cell line grown as spheroids; details: cited from earlier work
V79 cells [2] = experiment: cellular uptake by flow cytometry (fluorescence intensity per cell, MFI); type: cell-based, Chinese hamster; details: linear least squares fit; for slope of net MFI versus extracellular drug concentration, low concentrations: Cdauno<0.6 μmol/L, Cdoxo<1 μmol/L; for slope of net MFI versus extracellular drug concentration, high concentrations: Cdauno>0.6 μmol/L (+1161), Cdoxo>1 μmol/L (+29)
Description: Briefly, flow cytometry was used to quantify their mean fluorescence intensity (MFI) per cell, <I>, as a function of the concentration of the agent in the cell culture medium. The net mean fluorescence intensities per cell, <I>net, were determined by subtracting control autofluorescence <I>control, according to the following equation: […]
^210Po-Citrate. The uptake of ^210Po-citrate was determined on a cell-by-cell basis by flow cytometric techniques, using ^210Po-free citrate. Briefly, V79 cells (2×10^6 cells/mL) were treated with 0-3 mmol/L of citrate and incubated on a rocker-roller as described earlier. Cellular uptake of citrate was tracked using an europium tetracycline (EuTc) conjugate. Samples were washed 2× with 10 mmol/L MOPS buffer (Sigma, St. Louis, catalog no. M3183), after a 30 min exposure to citrate. The cells were resuspended in 1 mL of MOPS buffer containing EuTc (Sigma, catalog nos. 203254 for Eu and T7660 for Tc), transferred into 7 ml polystyrene flow cytometry tubes (BD, catalog no. 352054), and were incubated at room temperature (˜22° C.) in the dark for 30 min. The final concentration of EuTc was 100 μmol/L. EuTc forms a ternary complex with citrate (EuTc-citrate) which is excitable at 488 nm, and its emission can be captured within the wavelengths transmitted by the 610/20 filter. After washing 2× with MOPS buffer, the samples were resuspended in 1 mL of MOPS buffer, passed 5× through a 21-gauge needle, and were analyzed by flow cytometry using an LSR II flow cytometer (BD), equipped with a 488 nm laser. Cellular incorporation of citrate, expressed in terms of the fluorescence intensity per cell or mean fluorescence intensity (MFI) of EuTc-citrate, was used as a surrogate measure cellular uptake of ^210Po-citrate.
To determine the cellular uptake of daunomycin and doxorubicin, the cells were treated with 0-10 μmol/L of each drug in MEMB and incubated on a rocker-roller for 2.5 h. The cells were washed 2× with phosphate buffered saline (PBS), resuspended in 1 mL of PBS, passed 5× through a needle, and were immediately subjected to flow cytometric analysis. The 488 nm laser was used to excite intracellular daunomycin and doxorubicin, and the emission spectra were captured within the wavelengths transmitted by the 575/26 and 530/30 filters, respectively. Cellular incorporation of drugs was also expressed as MFI.

V79 cells [3] = experiment: clonogenic survival after combined treatment with 210Po-citrate and a chemotherapy drug; type: cell-based, Chinese hamster; details: for effect on radiotoxicity of 210Po-citrate α-particles: 0.63 μM daunomycin or 2.50 μM doxorubicin plus graded 210Po-citrate, corrected for drug toxicity
Description: (§1) ^210PoCl4 in 2 mol/L HCI was obtained at 370 MBq/mL from Eckert&Ziegler Isotope Products (Valencia, CA, catalog no. 6310). ^210Po-citrate was prepared as follows. Briefly, PoCl4 solution was mixed with 1 mol/L sodium citrate in the ratio of 1:7 (final pH 5.8), and was diluted with MEMB to a volume of 4 mL (final pH 6.9). One milliliter of MEMB containing 210Po-citrate was added to the 1 mL of conditioned V79 cultures (2×10^6 cells/mL), to arrive at a concentration of 0-250 kBq/mL (pH 6.9-7.0). After incubating for 30 min, the cells were washed 2× with MEMB, resuspended in 2 mL of MEMB, and incubated on a rocker-roller for 2.5 h to simulate concomitant drug exposure. The cells were resuspended in a 5 mL of MEMB, passed 5× through a needle, and counted with a Beckman Coulter Model Z2 (Brea, CA). Aliquots (500 μL) of the cell suspension were transferred to vials, mixed with 5 mL Ecolume (MP Biomedical, Solon, OH, catalog no. 882470), and counted with a Beckman Coulter LS6500, and the mean activity per cell was determined (efficiency, 50% as per prior studies). Aliquots of about 5×10^5 cells were counted in triplicate for ^210Po activity and the cpm ranged from 10^3-10^5. The triplicate measurements kept statistical variations to a minimum. Each sample was serially diluted and plated in Falcon 60×15 mm tissue culture dishes for colony formation. Cultures were incubated for 7 days, and the colonies were fixed in 95% ethanol, stained with 0.01% Amido Black, washed in tap-water, air-dried, and counted.
After conditioning, the cell cultures were treated with daunomycin (Sigma, catalog no. D8809) or doxorubicin (Sigma, catalog no. 44583) to a final concentration of 0-10 μmol/L in MEMB. The tubes were returned to the rocker-roller for 2.5 h. The cells were then processed for colony formation as described above.
To evaluate cytotoxicity of combined treatment of V79 cells with ^210Po-citrate and daunomycin, or ^210Po-citrate and doxorubicin, the surviving fraction of clonogens was plotted as a function of mean cellular uptake of ^210Po (FIG. 9) and as a function of mean absorbed dose to the cell nucleus. When cells were only treated with ^210Po-citrate, the survival curve can be described by a 1-component exponential function. When cells were concomitantly treated with a single drug concentration and varying amounts of ^210Po-citrate, the dose-response curves followed a 2-component exponential function. The data corresponding to the combined treatments were then corrected for drug toxicity, by dividing the surviving fraction for each datum point by the surviving fraction for drug alone (SF=0.10), and replotted in FIG. 9. Both of the corrected cell survival curves emerged below those obtained for ^210Po-citrate alone.

[4] = system: Chinese hamster V79 lung fibroblasts; experiment: clonogenic survival assay (colony formation) after single-agent treatment; type: cell-based; details: for surviving fraction for drug alone: 0.63 μM daunomycin or 2.50 μM doxorubicin, 2.5 h; for mean lethal concentration: extracellular concentration for 37% survival, 2.5 h exposure
Description: The surviving fraction SF of cells exposed to the agent was assessed with a clonogenic survival assay and plotted as a function of several different variables including extracellular concentration, <I>net, absorbed dose (Gy), and mean cellular activity (mBq/cell). The resulting survival curves were of a 1- or 2-component exponential form. Analogous to the cellular activity and absorbed dose required to achieve 37% survival, a37 and D37, the net mean lethal fluorescence intensity of the drug required to achieve 37% survival, <I>net37 , can be defined similarly and obtained from plots of SF versus <I>net.
To evaluate ^210Po cytotoxicity, the surviving fraction was plotted as a function of EuTc-citrate net MFI, mean cellular uptake of ^210Po, and mean absorbed dose to the nucleus (FIG. 4A). […] The relationships between cell survival and EuTc-citrate net MFI or cellular ^210Po activity can be described by an exponential function SF=exp(−A/A1). The relationship between cell survival and drug net MFI (or extracellular concentration) for daunomycin and doxorubicin are illustrated in FIGS. 4B and 4C, respectively. For both drugs, clonogenic survival and cellular drug uptake (as determined by net MFI) are related via two component exponential functions SF=b exp(−A/A1)+(1-b) exp(−A/A2). A is the intracellular activity of ^210Po-citrate, absorbed dose to the cell nucleus, or drug concentration. Least squares fits of the survival data to this function were performed. The variable b is a fitted parameter.
Chinese hamster V79 lung fibroblasts were used. Two different formulations of minimum essential media (MEMA and MEMB) were used, as known in the literature. All media and supplements were Gibco (Carlsbad, CA), including fetal calf serum (catalog no. 10437, lot no. 539574). For routine maintenance, cells were grown as monolayers in Falcon 25-cm^2 tissue culture flasks (BD, Franklin Lakes, NJ, catalog no. 353082) at 37° C., 5% CO2-95% air, and subcultured twice weekly. For experiments, V79 cells (passage 4-11) were transferred into Falcon 225-cm^2 flasks (BD, catalog no. 353138), and were used upon reaching 80%-90% confluence.
Cells grown in 225-cm^2 flasks were trypsinized (0.25% trypsin, Gibco, catalog no. 25200-056), and MEMB was added to obtain 2×10^6 cells/mL. Aliquots of 1 mL were placed in Falcon 17×100 mm polypropylene tubes (BD, catalog no. 352018) and placed on a rocker-roller (Thermo Fisher, Fair Lawn, NJ) for 3 hours at 37° C. with 5% CO2 and 95% air. After this conditioning period, cells were treated with drug or radiochemical. Cell cultures were exposed to radiochemical and drugs for 0.5 and 2.5 h, respectively.
as §1, with “Each sample was serially diluted and plated in Falcon 60×15 mm tissue culture dishes for colony formation. Cultures were incubated for 7 days, and the colonies were fixed in 95% ethanol, stained with 0.01% Amido Black, washed in tap-water, air-dried, and counted.” left out

V79 cells [5] = experiment: cellular 210Po activity, biologic clearance and cellular dosimetry (liquid scintillation counting); type: cell-based, Chinese hamster; details: for intracellular 210Po activity: corresponding to 0.1 mmol/L citrate
Description: The absorbed dose to the cell nucleus was determined as known in the art. Since cells were treated with ^210Po-citrate as a single-cell suspension and were subsequently seeded for colony formation, the small contribution of cross-irradiation from neighboring cells in the colony can be ignored because it is essentially counterbalanced by the reduction in self-dose caused by flattening of cells during the colony forming period. The data was least-squares fitted to obtain a mean biologic half-time of 11.6 h. […] This Tc, the maintenance period of 2.5 h, the subcellular distribution of ^210Po-citrate (28% nucleus, 72% cytoplasm) for V79 cells and published S values, were used to calculate a mean absorbed dose to the cell nucleus of 5.8 Gy/mBq of ^210Po incorporated into the cell.
as §1
To determine the biologic clearance of ^210Po from the cells, 4×10^6 cells/mL were treated with ^210Pocitrate as described above. After two washes with MEMB, the cells were resuspended in 5 mL of MEMB, passed 5× through a needle, and Coulter counted. Aliquots of 500 μL of cells were transferred to vials and mixed with Ecolume. The remaining cell suspension was plated into 25-cm^2 flasks (1.0, 0.5, 0.5, 0.2 and 0.2×10^6 cells/flask). The cultures were harvested after 24, 48, 72, and 96 h, respectively. Each sample was processed for cell counting and liquid scintillation counting as described. All vials were counted after the last harvest. The ratio of cellular activity at each time point to that immediately after treatment was calculated and plotted.

[6] = system: Chinese hamster V79 lung fibroblasts; details: obtained previously, older S values; cited from earlier work
[7] = 0.63 μM daunomycin + 210Po-citrate

In the case of “111In-DTPA-human epidermal growth factor [^111In-EGF]”, the “activity distribution, cell surface” value ([1]; 24 h treatment) is given as 62%, the “activity distribution, cytoplasm” value ([1]; 24 h treatment) is given as 22% and the “activity distribution, nucleus” value ([1]; 24 h treatment) is given as 16%. The “distribution of 111In in the spheroid” value ([1]; after a 24-h treatment) was “fully internalized”, the “penetration into the spheroid” value ([1]; after a 1 h treatment) was ~20 μm and the “distribution of 111In in the spheroid” value ([1]; treated for 1 h) was “accumulated mainly on the periphery of the spheroid”.

In the case of COc1cccc2c1C(=O)c1c(O)c3c(c(O)c1C2=O)C[C@@](O)(C(C)=O)C[C@@H]3O[C@H]1C[C@H](N)[C@H](O)[C@H](C)O1 [daunomycin], the “slope of net MFI versus extracellular drug concentration, low concentrations” value (V79 cells [2]) is reported as 5922 (μmol/L)^−1, the “slope of net MFI versus extracellular drug concentration, high concentrations” value (V79 cells [2]) is reported as 2480 (μmol/L)^−1 and the “absorbed dose beyond which the enhancement was independent of dose” value (V79 cells [3]; [7]) is reported as “about 0.5 Gy”. The “cellular activity beyond which the enhancement was independent of dose” value (V79 cells [3]; [7]) was ~0.09 mBq/cell, the “effect on radiotoxicity of 210Po-citrate α-particles” value (V79 cells [3]) was “enhance the radiotoxicity of α-particles” and the “surviving fraction for drug alone” value [4] was 0.10. For the same compound, the mean lethal concentration ([4]; V79 cells) was 0.24 µmol/L and the “lethality relative to doxorubicin” value ([4]; low extracellular concentrations, V79 cells) was ~5 ×.

For COc1cccc2c1C(=O)c1c(O)c3c(c(O)c1C2=O)C[C@@](O)(C(=O)CO)C[C@@H]3O[C@H]1C[C@H](N)[C@H](O)[C@H](C)O1 [doxorubicin], the “slope of net MFI versus extracellular drug concentration, low concentrations” value (V79 cells [2]) was 61 (μmol/L)^−1, the “slope of net MFI versus extracellular drug concentration, high concentrations” value (V79 cells [2]) was 40 (μmol/L)^−1 and the “effect on radiotoxicity of 210Po-citrate α-particles” value (V79 cells [3]) was “enhance the radiotoxicity of α-particles”. The “dose dependence of the increased kill” value (V79 cells [3]; 2.50 μM doxorubicin + 210Po-citrate) was “dose-dependent increase”, the “surviving fraction for drug alone” value [4] was 0.10 and the mean lethal concentration ([4]; V79 cells) was 1.26 µmol/L.

In the case of ^210Po-citrate, the “subcellular distribution, cytoplasm” value (V79 cells [5]; V79 cells) is reported as 72%, the “subcellular distribution, nucleus” value (V79 cells [5]; V79 cells) is reported as 28% and the mean biologic half-time (V79 cells [5]; clearance of 210Po from V79 cells) is reported as 11.6 h. The “intracellular 210Po activity” value (V79 cells [5]) was 0.03 mBq/cell, the “intracellular 210Po activity” value (V79 cells [5]; listed as 210Po) was 0.03 mBq/cell and ~0.02 mBq/cell and the “effective half-time Te” value (V79 cells [5]; from biologic half-time and physical half-life of 138 d) was 11.6 h. For the same compound, the “former value of mean lethal dose” value [6] was 0.7 Gy, the “cell kill at this activity” value ([4]; 0.1 mmol/L citrate) was “no significant cell kill” and the “atoms of 210Po corresponding to the mean lethal uptake” value ([4]; 0.21 mBq/cell) was “about 3600 atoms”. The “uptake giving the mean lethal absorbed dose” value ([4]; V79 cells) was 0.21 mBq/cell, the “mean lethal absorbed dose” value ([4]; absorbed dose to the cell nucleus, V79 cells) was 1.2 Gy and the cell killing observed ([4]; over the range of cellular activities employed) was “less than 2 logs”.

From patent publication US20240115881A1, “METHODS AND SYSTEMS FOR DETERMINING THE DISTRIBUTION OF RADIATION DOSE AND RESPONSE” (priority 2022, published 2024)
